Test results: patent publication US20180333418A1, “USE OF PAN FGFR INHIBITORS AND METHOD OF IDENTIFYING PATIENTS WITH CANCER ELIGIBLE FOR TREATMENT WITH A PAN FGFR INHIBITOR” (BAYER PHARMA AKTIENGESELLSCHAFT, priority 2014, published 2018)

Experiments:
[1] = tested on: ES204 esophagus squamous cell carcinoma; assay: ES204 patient-derived xenograft study; format: in vivo, nu/nu mice
Protocol: Female, 6-8 weeks old immunocompromised nu/nu mice (18-24 g) from Vital River (China) were used for the patient-derived ES204 esophagus squamous cell carcinoma study.
Experiment was initiated after a minimal acclimatization period of 6 days. Mice were kept in a 12 hours light/dark cycle, food and water was available ad libitum and housing temperature was 20-26° C. All the procedures related to animal handling, care, and the treatment in this study were performed according to the guidelines approved by the Institutional Animal Care and Use Committee (IACUC) of CrownBio following the guidance of the Association for Assessment and Accreditation of Laboratory Animal Care (AAALAC). […]
Tumor fragments from stock mice inoculated with selected primary human esophagus cancer tissues (ES204) were harvested and used for inoculation onto female nu/nu nude mice. […] Tumors were sampled when mice in the control group reached sacrificing criteria, and final tumor weights were measured on day 23 post treatment start.
Tumor size was measured twice weekly in two dimensions using a caliper, and the volume was expressed in mm^3 using the formula: V=0.5a×b^2 where a and b are the long and short diameters of the tumor, respectively. […]
Descriptive statistics for all groups were performed on final tumor areas and tumor weights at day of the necropsy. Statistical analysis was assessed using the SigmaStat software. […]

[2] = tested on: HN9897 Head & Neck squamous cell carcinoma; assay: HN9897 patient-derived xenograft study; format: in vivo, nu/nu mice
[3] = tested on: RT112 bladder tumor model; assay: RT112 xenograft in vivo efficacy; parameters: species or system nu/nu mice; settings: tumor weight reduction
Protocol: (§1) For all other tumors as listed in table 2 & 3 the experiments were carried out in an analogous way as described above.

[4] = tested on: LXFL1121 lung tumor model; assay: LXFL1121 xenograft in vivo efficacy; parameters: species or system nu/nu mice; settings: tumor weight reduction
Protocol: as §1

LU1901 lung tumor model = assay: LU1901 xenograft in vivo efficacy; parameters: species or system nu/nu mice; settings: tumor weight reduction
Protocol: as §1

LU299 lung tumor model = assay: LU299 xenograft in vivo efficacy; parameters: species or system nu/nu mice; settings: tumor weight reduction
Protocol: as §1

LXFE211 lung tumor model = assay: LXFE211 xenograft in vivo efficacy; parameters: species or system nu/nu mice; settings: tumor weight reduction
Protocol: as §1

[5] = tested on: LXFA1584 lung tumor model; assay: LXFA1584 xenograft in vivo efficacy; parameters: species or system nu/nu mice; settings: tumor weight reduction
Protocol: as §1

[6] = tested on: HNXF908 head&neck tumor model; assay: HNXF908 xenograft in vivo efficacy; parameters: species or system nu/nu mice; settings: tumor weight reduction
Protocol: as §1

[7] = tested on: A2780 ovarian tumor model; assay: A2780 xenograft in vivo efficacy; parameters: species or system nu/nu mice; settings: tumor weight reduction
Protocol: as §1

COCc1c(-c2cc3cc(C)cc(OC)c3s2)c2c(N)ncnn2c1CN1CCNC(=O)C1 [compound of formula (I)]
T/C at day 23 post treatment start ([1]; ES204, 50 mg/kg 2QD po, treated mean/vehicle mean tumor volume): 0.1 | in vivo efficacy ([1]; ES204 esophageal model, tumor weight reduction): yes (All models in which the tumor weight was reduced upon treatment with compounds of formula (I) by at least 50% were considered to be efficacious in vivo.) | T/C at day 44 post treatment start ([2]; HN9897, 50 mg/kg 2QD po, treated mean/vehicle mean tumor volume): 0.08 | in vivo efficacy ([2]; HN9897 head&neck model, tumor weight reduction): yes (All models in which the tumor weight was reduced upon treatment with compounds of formula (I) by at least 50% were considered to be efficacious in vivo.) | in vivo efficacy [3]: yes (All models in which the tumor weight was reduced upon treatment with compounds of formula (I) by at least 50% were considered to be efficacious in vivo.) | in vivo efficacy [4]: yes (All models in which the tumor weight was reduced upon treatment with compounds of formula (I) by at least 50% were considered to be efficacious in vivo.) | in vivo efficacy (LU1901 lung tumor model): no (All models in which the tumor weight was reduced upon treatment with compounds of formula (I) by at least 50% were considered to be efficacious in vivo.) | in vivo efficacy (LU299 lung tumor model): yes (All models in which the tumor weight was reduced upon treatment with compounds of formula (I) by at least 50% were considered to be efficacious in vivo.) | in vivo efficacy (LXFE211 lung tumor model): yes (All models in which the tumor weight was reduced upon treatment with compounds of formula (I) by at least 50% were considered to be efficacious in vivo.) | in vivo efficacy [5]: no (All models in which the tumor weight was reduced upon treatment with compounds of formula (I) by at least 50% were considered to be efficacious in vivo.) | in vivo efficacy [6]: yes (All models in which the tumor weight was reduced upon treatment with compounds of formula (I) by at least 50% were considered to be efficacious in vivo.) | in vivo efficacy [7]: yes (All models in which the tumor weight was reduced upon treatment with compounds of formula (I) by at least 50% were considered to be efficacious in vivo.)
